In patent US20100022514A1, “Heterocycle Compounds and Methods of Use Thereof” (NORVARTIS AG, priority 2006, published 2010):

Experiments:
[1] = system: p21 promoter (p21-luc) in H1299 cells; assay: p21 promoter luciferase assay using stably transfected p21-luc in H1299 cells; assay type: cell-based; conditions: Homo sapiens, NCI-H1299
Method in brief: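 H1299 cells stably carrying a p21 promoter–luciferase reporter, grown in RPMI 1640/10% FBS under Geneticin selection, seeded about 5000 cells/well and incubated overnight at 37 C. Compound exposure lasted one day. Cells were then lysed and luciferase luminescence measured.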

[2] = molecular target: T1, HDAC-1 (Homo sapiens, UniProt Q13547); assay: Deacetylase fluorescence assay (HDAC-1); assay type: biochemical; conditions: read-out: HDAC-1 IC50
T1 construct: made in house
Method in brief: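 Flag-tagged HDAC-1 immunopurified from overexpressing 293-derived cells was assayed in 25 mM Tris-HCl pH 8.0, 137 mM NaCl, 2.7 mM KCl, 1 mM MgCl2 with Fluor de Lys substrate (50 uM) and inhibitor. Deacetylation was read by fluorescence after trypsin developer containing TSA.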

T1 sequence (Q13547 whole entry): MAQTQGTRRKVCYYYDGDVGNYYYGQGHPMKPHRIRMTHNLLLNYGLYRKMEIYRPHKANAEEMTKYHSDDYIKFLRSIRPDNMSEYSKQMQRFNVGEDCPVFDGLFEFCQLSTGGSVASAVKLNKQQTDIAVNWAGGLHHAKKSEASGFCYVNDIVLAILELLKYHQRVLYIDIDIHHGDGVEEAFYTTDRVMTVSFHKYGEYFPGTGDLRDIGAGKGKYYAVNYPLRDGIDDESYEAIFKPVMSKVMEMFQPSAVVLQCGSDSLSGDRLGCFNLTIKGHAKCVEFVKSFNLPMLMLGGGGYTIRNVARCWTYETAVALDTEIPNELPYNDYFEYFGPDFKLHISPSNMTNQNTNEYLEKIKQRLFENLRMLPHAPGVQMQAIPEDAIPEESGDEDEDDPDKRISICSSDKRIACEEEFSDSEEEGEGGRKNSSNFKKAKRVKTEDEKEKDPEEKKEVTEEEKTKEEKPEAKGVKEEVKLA

IC50 [2] | Compound | AC50 [1]
< 100 nM | Cc1ccc(CC(=O)N2CCc3ccc(/C=C/C(=O)NO)cc3C2)cc1 [Example 64, (E)-N-Hydroxy-3-[2-(2-p-tolyl-acetyl)-1,2,3,4-tetrahydro-isoquinolin-7-yl]-acrylamide] | > 1000 nM
< 100 nM | COc1cccc(S(=O)(=O)N2Cc3ccc(/C=C/C(=O)NO)cc3C2)c1 [Example 13, (E)-N-Hydroxy-3-[2-(3-methoxy-benzenesulfonyl)-2,3-dihydro-1H-isoindol-5-yl]-acrylamide] | > 1000 nM
100 to 1000 nM | O=C(/C=C/c1ccc2c(c1)CN(CCc1c[nH]nc1-c1ccccc1)CC2)NO [Example 47, (E)-N-Hydroxy-3-{2-[2-(3-phenyl-1H-pyrazol-4-yl)-ethyl]-1,2,3,4-tetrahydro-isoquinolin-7-yl}-acrylamide] | > 1000 nM
100 to 1000 nM | O=C(/C=C/c1ccc2c(c1)CN(S(=O)(=O)C1CC1)C2)NO [Example 24, (E)-3-(2-Cyclopropanesulfonyl-2,3-dihydro-1H-isoindol-5-yl)-N-hydroxy-acrylamide] | > 1000 nM
100 to 1000 nM | O=C(/C=C/c1ccc2c(c1)CN(C(=O)c1cccnc1)C2)NO [Example 17, (E)-N-Hydroxy-3-[2-(pyridine-3-carbonyl)-2,3-dihydro-1H-isoindol-5-yl]-acrylamide] | > 1000 nM
100 to 1000 nM | CS(=O)(=O)N1Cc2ccc(/C=C/C(=O)NO)cc2C1 [Example 4, (E)-N-Hydroxy-3-(2-methanesulfonyl-2,3-dihydro-1H-isoindol-5-yl)-acryl amide] | > 1000 nM
< 100 nM | Cc1noc(-c2ccccc2)c1CCN1CCc2ccc(/C=C/C(=O)NO)cc2C1 [Example 38, (E)-N-Hydroxy-3-{2-[2-(3-methyl-5-phenyl-isoxazol-4-yl)-ethyl]-1,2,3,4-tetrahydro-isoquinolin-7-yl}-acrylamide] | > 1000 nM
100 to 1000 nM | Cc1ccccc1S(=O)(=O)N1Cc2ccc(/C=C/C(=O)NO)cc2C1 [Example 14, (E)-N-Hydroxy-3-[2-(toluene-2-sulfonyl)-2,3-dihydro-1H-isoindol-5-yl]-acrylamide] | > 1000 nM
100 to 1000 nM | COc1ccc(C(=O)N2CCc3ccc(CCC(=O)NO)cc3C2)cc1 [Example 58, N-Hydroxy-3-[2-(4-methoxy-benzoyl)-1,2,3,4-tetrahydro-isoquinolin-7-yl]-propionamide] | > 1000 nM
< 100 nM | O=C(/C=C/c1ccc2c(c1)CN(C(=O)Cc1ccc(Cl)c(Cl)c1)CC2)NO [Example 67, (E)-3-{2-[2-(3,4-Dichloro-phenyl)-acetyl]-1,2,3,4-tetrahydro-isoquinolin-7-yl}-N-hydroxy-acrylamide] | > 1000 nM
< 100 nM | Cc1c(CCN2CCc3cc(/C=C/C(=O)NO)ccc3C2)cnn1-c1ccccc1 [Example 85, (E)-N-Hydroxy-3-{2-[2-(5-methyl-1-phenyl-1H-pyrazol-4-yl)-ethyl]-1,2,3,4-tetrahydro-isoquinolin-6-yl}-acrylamide] | > 1000 nM
100 to 1000 nM | O=C(/C=C/c1ccc2c(c1)CN(C(=O)C1CCCCC1)C2)NO [Example 21, (E)-3-(2-Cyclohexanecarbonyl-2,3-dihydro-1H-isoindol-5-yl)-N-hydroxy-acrylamide] | > 1000 nM
100 to 1000 nM | O=C(/C=C/c1ccc2c(c1)CN(S(=O)(=O)Cc1ccccc1)C2)NO [Example 20, (E)-N-Hydroxy-3-(2-phenylmethanesulfonyl-2,3-dihydro-1H-isoindol-5-yl)-acrylamide] | > 1000 nM

Compound | IC50 [2] | AC50 [1]
Cc1[nH]c2ccccc2c1CCN1CCc2ccc(/C=C/C(=O)NO)cc2C1 [Example 39, (E)-N-Hydroxy-3-{2-[2-(2-methyl-1H-indol-3-yl)-ethyl]-1,2,3,4-tetrahydro-isoquinolin-7-yl}-acrylamide] | < 100 nM | 100 to 1000 nM
